Test results as given in patent publication US11395828B2, “Spironolactone aqueous compositions” (CMP DEVELOPMENT LLC, priority 2015, dated 2022).
Converted amounts (≈) assume the structure as drawn.

Assays:
[1] = Pramar et al.; cited from earlier work
[2] = added to a standard therapy for adults with severe heart failure; cited from earlier work
[3] = reported in Pramar et al.; cited from earlier work
Dissolution, USP <711> = type: physicochemical; settings: USP <711> dissolution study
Description: Dissolution was measured in a manner consistent with USP <711> reporting the amount of dissolved spironolactone as a percent of labeled content with an associated relative standard devision (“RSD”).

[4] = Particle size by laser diffraction; type: physicochemical; settings: spironolactone solid prior to composition manufacture
Description: Particle size measurements were performed on spironolactone (prior to composition manufacture) and on the particulate matter present in the compositions described herein by laser diffraction. The reported particle sizes D(v, 0.1), D(v, 0.5), and D(v, 0.9) relate to the mass median diameter (in μm) of the volume of distribution of the given particles. […] Alternatively, particle size can be estimated using optical microscopy.

[5] = sorbic acid and sorbate; cited from earlier work

Compound: CC(=O)S[C@@H]1CC2=CC(=O)CC[C@]2(C)[C@H]2CC[C@@]3(C)[C@@H](CC[C@@]34CCC(=O)O4)[C@H]12 [Spironolactone]
- pH at which spironolactone exhibits maximum stability [1]: 4.5
- reduction in mortality [2]: 30%
- aqueous solubility [3]: 28 µg/mL (≈ 67.2 µM)

Compound: CC(=O)S[C@@H]1CC2=CC(=O)CC[C@]2(C)[C@H]2CC[C@@]3(C)[C@@H](CC[C@@]34CCC(=O)O4)[C@H]12 [micronized spironolactone, spironolactone]
- labeled content dissolved at 5-minutes (Dissolution, USP <711>): about 90 % of labeled content
- particle size D(v, 0.5) [4]: about 3.64 m
- particle size D(v, 0.9) [4]: about 9.42 m

Compound: C/C=C/C=C/C(=O)O [sorbic acid]
- equilibrium pKa-value [5]: about 4.8

Compound: CC(=O)S[C@@H]1CC2=CC(=O)CC[C@]2(C)[C@H]2CC[C@@]3(C)[C@@H](CC[C@@]34CCC(=O)O4)[C@H]12 [unmicronized spironolactone, spironolactone]
- labeled content dissolved at 5-minutes (Dissolution, USP <711>): about 50 % of labeled content
- particle size D(v, 0.1) [4]: 7.47 µm
- particle size D(v, 0.5) [4]: 18.3 µm
- particle size D(v, 0.9) [4]: 35.5 µm
